Test results: patent publication US10752587B2, “Homobispiperidinyl derivatives as liver X receptor beta agonists, compositions and their use” (Merck Sharp & Dohme Corp., priority 2015, dated 2020)
pEC50: −log10 of the molar value. Where two headings read alike, the source gives them in different places.

Tests used:
[1] = molecular target: T1, glutathione-S-transferase (GST) tagged LXRalpha LBD (ligand binding domain) (Homo sapiens, UniProt Q13133); assay: LanthaScreen TR-FRET Liver X Receptor Coactivator Assay, co-activator recruitment to LXRalpha LBD; format: biochemical; settings: for LXR alpha IP (Inflection Point, potency): co-activator recruitment to GST-LXRalpha LBD, TR-FRET; for LXR alpha IP (nM) / pEC50: potency (Inflection Point, IP), co-activator recruitment to LXRalpha LBD, in relation to T0901317; for pEC50: read-out: LXR alpha IP
T1 construct: purchased Invitrogen pv4655
T1 sequence (Q13133 209-447 limits assumed): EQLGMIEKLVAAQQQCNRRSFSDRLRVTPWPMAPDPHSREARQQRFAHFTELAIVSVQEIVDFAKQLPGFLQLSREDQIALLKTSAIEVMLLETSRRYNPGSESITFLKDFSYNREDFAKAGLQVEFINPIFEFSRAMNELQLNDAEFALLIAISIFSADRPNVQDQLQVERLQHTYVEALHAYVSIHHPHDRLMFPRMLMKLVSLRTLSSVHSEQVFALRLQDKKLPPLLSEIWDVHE
Description: (§1) Potency (Inflection Point, IP) and efficacy (Emax) are evaluated via compound-induced co-activator recruitment to glutathione-S-transferase (GST) tagged LXRbeta and LXRalpha LBD (ligand binding domain) proteins in relation to reference dual agonist compound T0901317 (N-(2,2,2-Trifluoroethyl)-N-[4-[2,2,2-trifluoro-1-hydroxy-1-(trifluoromethyl)ethyl] phenyl] benzenesulfonamide) using the LanthaScreen™ TR-FRET Liver X Receptor Coactivator Assays according to manufacturer's instructions (Invitrogen catalog number pv4658.pps and pv4655). While running the LanthaScreen™ TR-FRET Liver X Receptor Coactivator Assay, LXR alpha-LBD or LXR beta-LBD was added to ligand test compounds followed by addition of a mixture of a fluorescein-labelled coactivator peptide and terbium-conjugated anti-GST antibody. After an incubation period at room temperature, TR-FRET (time-resolved fluorescence resonance energy transfer) was measured using a filter-based instrument capable of TR-FRET, e.g. PerkinElmer Envision.

[2] = molecular target: T2, glutathione-S-transferase (GST) tagged LXRbeta LBD (ligand binding domain) (Homo sapiens, UniProt P55055); assay: LanthaScreen TR-FRET Liver X Receptor Coactivator Assay, co-activator recruitment to LXRbeta LBD; format: biochemical
T2 construct: purchased Invitrogen pv4658.pps
T2 sequence (P55055 222-460 limits assumed): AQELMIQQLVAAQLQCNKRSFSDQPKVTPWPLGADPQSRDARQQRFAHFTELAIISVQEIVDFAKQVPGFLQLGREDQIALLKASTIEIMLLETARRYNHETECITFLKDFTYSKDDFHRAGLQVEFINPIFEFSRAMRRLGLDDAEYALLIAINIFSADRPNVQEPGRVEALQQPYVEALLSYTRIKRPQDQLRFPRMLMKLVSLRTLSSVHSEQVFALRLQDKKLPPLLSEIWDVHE
Description: as §1

[3] = efficacy in relation to reference dual agonist T0901317, read-out: LXR alpha Activity @ max dose
[4] = co-activator recruitment to GST-LXRbeta LBD, TR-FRET, read-out: LXR beta IP (Inflection Point, potency)
[5] = efficacy in relation to reference dual agonist T0901317, read-out: LXR beta Activity @ max dose
[6] = efficacy at max dose, in relation to reference dual agonist T0901317, read-out: LXR alpha Activity @ max dose (%)
[7] = efficacy at max dose, in relation to reference dual agonist T0901317, read-out: LXR beta Activity @ max dose (%)
[8] = potency (Inflection Point, IP), co-activator recruitment to LXRbeta LBD, in relation to T0901317, read-out: LXR beta IP

Compound | Emax [1, 6] [%] | LXR alpha IP (nM) [1] | Emax [2, 7] [%] | pEC50 [2, 8] | pEC50 [1] | also measured
CN(C)C(=O)c1ccc(N2CCC(CC3CCN(S(=O)(=O)c4ccc(Cl)s4)CC3)CC2)cc1Cl [Example 13-9, 2-chloro-4-[4-({1-[(5-chlorothiophen-2-yl)-sulfonyl]piperidin-4-yl}methyl)piperidin-1-yl]-N,N-dimethylbenzamide] |  |  |  |  |  | LXR alpha IP (Inflection Point, potency) [1]: NO IP; Emax [1, 3]: 0%; pEC50 [2, 4]: 6.64; Emax [2, 5]: 20%
CO[C@](C(=O)N1CCC(OC2CCN(c3ccc(C(=O)N(C)C)c(Cl)c3)CC2)CC1)(c1ccccc1)C(F)(F)F [Example 2-20, 2-chloro-N,N-dimethyl-4-[4-({1-[(2S)-3,3,3-trifluoro-2-methoxy-2-phenylpropanoyl]piperidin-4-yl}oxy)piperidin-1-yl]benzamide] | 4 | NO IP | 81 | 6.47 |  | 
CNC(=O)c1ccc(N2CCC(CC3CCN(C(=O)C(O)(c4cccc(Cl)c4)C(F)(F)F)CC3)CC2)cc1Cl (centres unmarked) [Example 7-37, 2-chloro-4-[4-({1-[2-(3-chlorophenyl)-3,3,3-trifluoro-2-hydroxypropanoyl]piperidin-4-yl}methyl)piperidin-1-yl]-N-methylbenzamide] | 27 |  | 90 | 7.80 | 6.47 | 
Cc1cc(N2CCC(CC3(C)CCN(C(=O)[C@](O)(c4cc(F)cc(Cl)c4)C(F)(F)F)CC3)CC2)ccc1C(=O)N(C)C [Example 2-75, 4-[4-({1-[(2R)-2-(3-chloro-5-fluorophenyl)-3,3,3-trifluoro-2-hydroxy-propanoyl]-4-methylpiperidin-4-yl}methyl)piperidin-1-yl]-N,N,2-trimethyl-benzamide] | 31 |  | 80 | 7.92 | 6.78 | 
CNC(=O)c1ccc(N2CCC(CC3CCN(C(=O)[C@](O)(c4ccccc4)C(F)(F)F)CC3)CC2)cc1Cl [Example 7-25, 2-chloro-N-methyl-4-[4-({1-[(2R)-3,3,3-trifluoro-2-hydroxy-2-phenylpropanoyl]piperidin-4-yl}methyl)piperidin-1-yl]benzamide] | 44 |  | 77 | 7.70 | 6.46 | 
COc1cc(Cl)cc([C@@](O)(C(=O)N2CCC(C)(CC3CCN(c4ccc(C(=O)N(C)C)c(Cl)c4)CC3)CC2)C(F)(F)F)c1 [Example 2-48, 2-chloro-4-[4-({1-[(2R)-2-(3-chloro-5-methoxyphenyl)-3,3,3-trifluoro-2-hydroxy-propanoyl]-4-methyl-piperidin-4-yl}methyl)piperidin-1-yl]-N,N-dimethyl-benzamide] | 0 | NO IP | 30 | 7.57 |  | 
COc1cc(F)cc([C@@](O)(C(=O)N2CCC(CC3CCN(c4ccc(C(=O)N(C)C)c(C)c4)CC3)CC2)C(F)(F)F)c1 [Example 2-152, N,N,2-trimethyl-4-[4-({1-[(2R)-3,3,3-trifluoro-2-(3-fluoro-5-methoxyphenyl)-2-hydroxy-propanoyl]piperidin-4-yl}methyl)piperidin-1-yl]benzamide] | 18 | NO IP | 74 | 7.96 |  | 
CN(C)C(=O)c1ccc(N2CCC(CC3CCN(C(=O)[C@](O)(c4ccccc4)C(F)F)CC3)CC2)cc1Cl [Example 2-166, 2-chloro-4-[4-({1-[(2R)-3,3-difluoro-2-hydroxy-2-phenyl-propanoyl]piperidin-4-yl}methyl)piperidin-1-yl]-N,N-dimethyl-benzamide] | 20 |  | 46 | 7.85 | 6.53 | 
COc1cccc([C@@](O)(C(=O)N2CCC(CC3CCN(c4ccc(C(=O)N(C)C)c(Cl)n4)CC3)CC2)C(F)(F)F)c1 [Example 7-52, 2-chloro-N,N-dimethyl-6-[4-({1-[(2R)-3,3,3-trifluoro-2-hydroxy-2-(3-methoxyphenyl)propanoyl]piperidin-4-yl}methyl)piperidin-1-yl]pyridine-3-carboxamide] | 14 |  | 69 | 8.30 | 6.92 | 
CCOc1cccc([C@@](O)(C(=O)N2CCC(CC3CCN(c4ccc(C(N)=O)c(Cl)c4)CC3)CC2)C(F)(F)F)c1 [Example 12-8, 2-chloro-4-[4-({1-[(2R)-2-(3-ethoxyphenyl)-3,3,3-trifluoro-2-hydroxypropanoyl]-piperidin-4-yl}methyl)-piperidin-1-yl]-benzamide] |  |  |  |  |  | LXR alpha IP (Inflection Point, potency) [1]: NO IP; Emax [1, 3]: 12%; pEC50 [2, 4]: 8.40; Emax [2, 5]: 46%
Cc1cc(N2CCC(CC3CN(C(=O)[C@](O)(c4cc(F)cc(Cl)c4)C(F)(F)F)C3)CC2)ccc1C(=O)N(C)C [Example 2-81, 4-[4-({1-[(2R)-2-(3-chloro-5-fluorophenyl)-3,3,3-trifluoro-2-hydroxy-propanoyl]azetidin-3-yl}methyl)piperidin-1-yl]-N,N,2-trimethyl-benzamide] | 40 |  | 103 | 7.41 | 6.10 | 
CNC(=O)c1ccc(N2CCC(CC3CCN(C(=O)[C@@](O)(c4ccccc4)C(F)(F)F)CC3)CC2)nc1Cl [Example 7-140, 2-chloro-N-methyl-6-[4-({1-[(2S)-3,3,3-trifluoro-2-hydroxy-2-phenylpropanoyl]piperidin-4-yl}methyl)piperidin-1-yl]pyridine-3-carboxamide] | 44 |  | 122 | 6.80 | 5.95 | 
CN(C)C(=O)c1ccc(N2CCC(CC3CCN(C(=O)C(O)(c4ccccc4)C4CCCCC4)CC3)CC2)nc1Cl (centres unmarked) [Example 7-100, 2-chloro-6-[4-({1-[cyclohexyl(hydroxy)phenylacetyl]piperidin-4-yl}methyl)piperidin-1-yl]-N,N-dimethylpyridine-3-carboxamide] |  | NO IP |  |  |  | Emax ([1]; read-out: LXR alpha Activity @ max dose (%)): 4%; EC50 ([2]; LXR beta IP (nM), potency (Inflection Point, IP), co-activator recruitment to LXRbeta LBD, in relation to T0901317): 200 nM; Emax ([2]; read-out: LXR beta Activity @ max dose (%)): 37%
CNC(=O)c1ccc(N2CCC(CC3CCN(C(=O)[C@](O)(c4cc(Cl)cc(OC)c4)C(F)(F)F)CC3)CC2)cc1Cl [Example 7-117, 2-chloro-4-[4-({1-[(2R)-2-(3-chloro-5-methoxyphenyl)-3,3,3-trifuoro-2-hydroxypropanoyl]piperidin-4-yl}methyl)piperidin-1-yl]-N-methylbenzamide] | 0 | NO IP | 35 | 7.60 |  | 
CN(C)C(=O)c1ccc(N2CCC(CC3CCN(C(=O)C(O)(c4cc(F)cc(F)c4)C(F)(F)F)CC3)CC2)nc1Cl (centres unmarked) [Example 7-82, 2-chloro-6-[4-({1-[2-(3,5-difluorophenyl)-3,3,3-trifluoro-2-hydroxypropanoyl]piperidin-4-yl}methyl)piperidin-1-yl]-N,N-dimethylpyridine-3-carboxamide] | 53 |  | 111 | 8.15 | 6.97 | 
CN(C)C(=O)c1ccc(N2[C@@H]3CC[C@H]2CN(CC2CCN(C(=O)[C@](O)(c4ccccc4)C(F)(F)F)CC2)C3)cc1Cl [Example 6-3, 2-chloro-N,N-dimethyl-4-[(1R,5S)-3-({1-[(2R)-3,3,3-trifluoro-2-hydroxy-2-phenylpropanoyl]piperidin-4-yl}methyl)-3,8-diazabicyclo[3.2.1]oct-8-yl]benzamide] | 18 | NO IP | 37 | 5.59 |  | 
COc1cc(F)cc([C@@](O)(C(=O)N2CCC(CC3CCN(c4ccc(C(N)=O)c(Cl)c4)CC3)CC2)C(F)(F)F)c1 [Example 12-3, 2-chloro-4-[4-({1-[(2R)-3,3,3-trifluoro-2-(3-fluoro-5-methoxy-phenyl)-2-hydroxy-propanoyl]piperidin-4-yl}methyl)-piperidin-1-yl]-benzamide] | 20 |  | 79 | 8.30 | 7.31 | 
